Experimental data published in PubChem BioAssay AID179 (DTP/NCI, 2004).
Activity calls are given as the source filed them.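 The calls were made as follows: active = compounds giving half or more protection of infected cells from virus-caused growth loss, again on retest; inactive = the rest.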

Tested on: CEM cells HIV-1 protection, formazan growth assay
Assay: NCI AIDS Antiviral Assay
Details: for IC50: measured here: growth of uninfected CEM cells
Outline: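 Human CEM cells, uninfected and HIV-1-infected, received five drug concentrations, and growth was read by soluble formazan assay. Compounds giving at least 50% protection were retested; reproducible 100% protection defined confirmed active.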

## CCCCc1c2c(nc3c1CCc1cc4cc5c(nc4nc1-3)-c1nc3c(c(CCCC)c1CC5)CCC/C3=C\c1ccccc1)/C(=C/c1ccccc1)CCC2
  EC50: > 1.95 µM
  IC50: > 1.95 µM

## CC1=NN(C(=O)c2ccccc2O)C(=O)/C1=C/c1ccco1
  EC50: > 87.1 µM
  IC50: 0.603 µM

## O=C1OC(=O)C2C1C1C(c3ccccc3)=C(c3ccccc3)C2(O)C2C(=O)OC(=O)C12 (stereo unspecified)
  EC50: > 17.4 µM
  IC50: 10.2 µM

## COC1=CC(=O)C(=O)c2ccc(C)nc21
  outcome: inactive

## COc1ccc2c(c1)O[C@]1(O)c3cc4c(cc3O[C@@H]1C2)OCO4
  EC50: > 12 µM
  IC50: > 12 µM

## CCCCNc1nc(C(F)(F)F)nc2nc[nH]c12
  EC50: > 200 µM
  IC50: > 200 µM

## COC(=O)C1(C)CCCC2(C)C3CC(CO)C(C(C)C)CC3CCC12 (stereo unspecified)
  EC50: > 200 µM
  IC50: > 200 µM

## COc1ccc(NC(=S)N/N=C/c2ccccn2)cc1
  EC50: > 2 µM
  IC50: 0.316 µM

## C#CCN(N=O)C(=O)NCCCC(NC(C)=O)C(=O)NCc1ccccc1 (stereo unspecified)
  EC50: > 676 µM
  IC50: 51.3 µM

## CNC(=O)N(CCC#N)[C@H]1CCCC[C@@H]1N(C(=O)NC)c1ccccc1
  EC50: > 200 µM
  IC50: > 200 µM

## O=C(O)C1C(c2ccccc2)C=CC(c2ccccc2)C1C(=O)O (stereo unspecified)
  outcome: inactive

## O=NN1C(c2ccccc2)C2CCCC(C2=O)C1c1ccccc1 (stereo unspecified)
  EC50: > 58.9 µM
  IC50: > 58.9 µM

## CC1(C)OC(=O)C(=Cc2ccc(Br)cc2)C(=O)O1
  EC50: > 417 µM
  IC50: 257 µM

## CCOC(=O)SC1=NC(C)=CC(C)(C)S1
  EC50: 53.7 µM
  IC50: 145 µM

## CCOP(=O)(O)C(Nc1ccc(N=Nc2ccccc2)cc1)c1cccc(C(Nc2ccc(N=Nc3ccccc3)cc2)P(=O)(O)OCC)c1 (stereo unspecified)
  EC50: > 200 µM
  IC50: 35.5 µM

## CC(=O)C1(O)C(=[N+]=[N-])C(=O)Nc2ccccc21 (stereo unspecified)
  EC50: > 200 µM
  IC50: 66.1 µM

## CN(C)/C=N/c1cc(=O)n(C)c(=O)n1C
  outcome: inactive

## CC(C)CCC[C@@H](C)[C@H]1CCC2[C@@H]3CC[C@H]4C[C@@H](CCC=C(c5cc(Cl)c(OCc6ccc(-c7ccc(C(=O)O)cc7)cc6)c(C(=O)O)c5)c5cc(Cl)c(OCc6ccc(-c7ccc(C(=O)O)cc7)cc6)c(C(=O)O)c5)CC[C@]4(C)[C@H]3CC[C@@]21C (stereo partly specified)
  EC50: > 200 µM
  IC50: 170 µM

## CCOC(=O)/C=C/CC(C)(C)COC(C)=O
  outcome: inactive

## O=C(Cc1ccccc1)NN1C(=O)C(Cl)C1c1cccc([N+](=O)[O-])c1 (stereo unspecified)
  EC50: > 14.5 µM
  IC50: 8.71 µM

## C1CCC2C(C1)CCCC2NC1=NCCO1 (stereo unspecified)
  EC50: > 200 µM
  IC50: 115 µM

## CC(=O)OC12c3ccccc3C(c3ccccc31)C1C(=O)N(c3ccccn3)C(=O)C12 (stereo unspecified)
  EC50: > 200 µM
  IC50: > 200 µM

## COC(=O)c1ccc2c(c1)CC1(C2)Cc2cc3c(cc2C1)CCC3
  EC50: > 200 µM
  IC50: > 200 µM

## CCCCCCCCCCCCCCCCOC1OC(CCSSC2OC(OCCCCCCCCCCCCCCCC)C(O)C(O)C2O)C(O)C(O)C1O (stereo unspecified)
  EC50: > 3.24 µM
  IC50: > 3.24 µM

## O=c1[nH]cnc2[nH]ncc12
  EC50: > 200 µM
  IC50: > 200 µM

## CCCCN(CCCC)CC(C(=O)Nc1ccc([N+](=O)[O-])cc1[N+](=O)[O-])/C(C)=N\NC(=O)C[N+](C)(C)C (stereo unspecified)
  EC50: > 46.8 µM
  IC50: > 46.8 µM

## CC1(C)CCSC(/C=C/c2ccccc2)=N1
  EC50: > 20 µM
  IC50: 4.17 µM

## CC1(C)/C(=N\NC(N)=O)C2CCC1C2 (stereo unspecified)
  EC50: > 200 µM
  IC50: > 200 µM

## CCOC(=O)c1[nH]n(-c2ccccc2)c(=O)c1/C=N/C(=S)N=Nc1c(O)[nH]c2ccccc12
  EC50: > 200 µM
  IC50: > 100 µM

## O=c1[nH]c(-c2ccc(-c3nc4cc([N+](=O)[O-])ccc4c(=O)[nH]3)cc2)nc2cc([N+](=O)[O-])ccc12
  EC50: > 7.94 µM
  IC50: > 7.94 µM

## CCC12C=CCN3CC[C@@]4(c5cc([C@@]6(C(=O)OC)CC7CN(CCc8c6[nH]c6ccccc86)C[C@](O)(CC)C7)c(OC)cc5N(C)[C@H]4[C@]4(OCOC4=O)[C@@H]1O)C32 (stereo partly specified)
  outcome: inactive

## CC(=O)N=C1N(/C=C2\C(=O)Oc3ccccc3C2=O)C(=O)/C(=C/c2ccc(NC(C)=O)cc2)N1C
  EC50: > 200 µM
  IC50: > 200 µM

## CCCCCCCC/C=C\CCCCCCC(F)C(=O)O (stereo unspecified)
  EC50: 33.1 µM
  IC50: > 200 µM

## Nc1ccc(/C=C/c2ccc(N=Nc3cc(S(=O)(=O)O)c4cccnc4c3O)cc2S(=O)(=O)O)c(S(=O)(=O)O)c1
  EC50: 34.7 µM
  IC50: > 200 µM

## O=C1NS(=O)(=O)c2cc(Cl)ccc21
  EC50: > 1150 µM
  IC50: > 1150 µM

## c1ccc([P+](CCOCC[P+](c2ccccc2)(c2ccccc2)c2ccccc2)(c2ccccc2)c2ccccc2)cc1
  EC50: > 200 µM
  IC50: 49 µM

## CCOC(=O)COc1ccc(/C=C/C(=O)c2ccc(OC)cc2)cc1
  EC50: > 200 µM
  IC50: 11.2 µM

## Cc1ccc(O)c(N=O)c1.[Cu+2]
  EC50: > 200 µM
  IC50: 2.63 µM

## Cc1cn(C(Cc2ccccc2)OCCO)c(=O)[nH]c1=O (stereo unspecified)
  EC50: > 200 µM
  IC50: > 200 µM

## NC(Cc1ccccc1CP(=O)(O)O)C(=O)O (stereo unspecified)
  EC50: > 200 µM
  IC50: > 200 µM

## CC/C(=C(\CC)c1ccc(OCCCN2CCCCC2C)cc1)c1ccc(OCCCN2CCCCC2C)cc1 (stereo unspecified)
  EC50: > 20 µM
  IC50: 2.29 µM

## NS(=O)(=O)c1cc2c(cc1Cl)NC(/C(=N/NC(=O)c1ccncc1)C1C(=O)NC(=O)NC1=O)=NS2(=O)=O
  EC50: > 87.1 µM
  IC50: > 87.1 µM

## CCOC(=O)/C(C#N)=C/c1ccc(F)cc1
  EC50: > 162 µM
  IC50: > 162 µM
